Test system: HCoV-229E
Assay: HCoV-229E-Luc infection inhibition luciferase assay
Assay type: cell-based

Structure (SMILES)	HCoV-229E infection with entry inhibitor
CCOC(=O)[C@H]1O[C@@H]1C(=O)N[C@@H](CC(C)C)C(=O)NCCC(C)C [E64D]	specifically inhibited HCoV-229E infection
CN(C)C(=O)COC(=O)Cc1ccc(OC(=O)c2ccc(NC(=N)N)cc2)cc1 [Camostat]	inhibited infection

Source: PMC8846325, “A Photoactivable Natural Product with Broad Antiviral Activity against Enveloped Viruses, Including Highly Pathogenic Coronaviruses” (Antimicrobial Agents and Chemotherapy, 2022)
